Experimental data reported in the supplement of paper PMC10307832.

Columns and labels:
Test in all cases: relative viability (nuclei count vs DMSO), 5 days (fraction); higher = more cells survive
NCI-H596 = tested on: NCI-H596
How it was run: (§1)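 Cells from lung cancer lines were seeded into 1536-well plates and, one day later, dosed by pin tool. Treatments were either a single drug or a fixed dose of an anchor drug with five library-drug doses (not always all listed) in √10 steps. After 5 days, nuclei were stained in a one-step fixation (final 0.05% Triton X-100, 1% formaldehyde, 1 ug/ml Hoechst) and counted on 4× images, and relative viability is the treated-to-vehicle nuclei ratio, as the median of duplicate plates.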

NCI-H2023 = tested on: NCI-H2023
How it was run: as §1

NCI-H3122 = tested on: NCI-H3122
How it was run: as §1

NCI-H1623 = tested on: NCI-H1623
How it was run: as §1

NCI-H2009 = tested on: NCI-H2009
How it was run: as §1

PC-14 = tested on: PC-14
How it was run: as §1

A-427 = tested on: A-427
How it was run: as §1

NCI-H1793 = tested on: NCI-H1793
How it was run: as §1

NCI-H650 = tested on: NCI-H650
How it was run: as §1

SK-LU-1 = tested on: SK-LU-1
How it was run: as §1

PC-3 [JPC-3] = tested on: PC-3 [JPC-3]
How it was run: as §1

NCI-H1975 = tested on: NCI-H1975
How it was run: as §1

NCI-H460 = tested on: NCI-H460
How it was run: as §1

NCI-H1915 = tested on: NCI-H1915
How it was run: as §1

HCC-15 = tested on: HCC-15
How it was run: as §1

NCI-H1437 = tested on: NCI-H1437
How it was run: as §1

NCI-H2405 = tested on: NCI-H2405
How it was run: as §1

LXF-289 = tested on: LXF-289
How it was run: as §1

NCI-H441 = tested on: NCI-H441
How it was run: as §1

UMC-11 = tested on: UMC-11
How it was run: as §1

H3255 = tested on: H3255
How it was run: as §1

NCI-H1755 = tested on: NCI-H1755
How it was run: as §1

HARA = tested on: HARA
How it was run: as §1

## CCCCCCCCCCCC1=C(O)C(=O)C=C(O)C1=O [Embelin] + CCNC(=O)c1noc(-c2cc(C(C)C)c(O)cc2O)c1-c1ccc(CN2CCOCC2)cc1 [Luminespib] (partner 0.01 µM)
NCI-H596; first compound 0.08 µM
  relative viability: 1.05
NCI-H596; first compound 0.8 µM
  relative viability: 0.795
NCI-H596; first compound 2.53 µM
  relative viability: 1.43
NCI-H596; first compound 8 µM
  relative viability: 0.904
NCI-H2023; first compound 0.08 µM
  relative viability: 0.813
NCI-H2023; first compound 0.8 µM
  relative viability: 0.914
NCI-H2023; first compound 2.53 µM
  relative viability: 0.773
NCI-H2023; first compound 8 µM
  relative viability: 0.372
NCI-H3122; first compound 0.08 µM
  relative viability: 0.068
NCI-H3122; first compound 0.8 µM
  relative viability: 0.0941
NCI-H3122; first compound 2.53 µM
  relative viability: 0.0799
NCI-H3122; first compound 8 µM
  relative viability: 0.0894
NCI-H1623; first compound 0.08 µM
  relative viability: 0.577
NCI-H1623; first compound 0.8 µM
  relative viability: 0.478
NCI-H1623; first compound 2.53 µM
  relative viability: 0.484
NCI-H1623; first compound 8 µM
  relative viability: 0.452
NCI-H2009; first compound 0.08 µM
  relative viability: 1.05
NCI-H2009; first compound 0.8 µM
  relative viability: 1.07
NCI-H2009; first compound 2.53 µM
  relative viability: 1.08
NCI-H2009; first compound 8 µM
  relative viability: 1.01
PC-14; first compound 0.08 µM
  relative viability: 0.203
PC-14; first compound 0.8 µM
  relative viability: 0.235
PC-14; first compound 2.53 µM
  relative viability: 0.211
PC-14; first compound 8 µM
  relative viability: 0.167
A-427; first compound 0.08 µM
  relative viability: 0.976
A-427; first compound 0.8 µM
  relative viability: 0.998
A-427; first compound 2.53 µM
  relative viability: 0.966
A-427; first compound 8 µM
  relative viability: 1.18
NCI-H1793; first compound 0.08 µM
  relative viability: 0.175
NCI-H1793; first compound 0.8 µM
  relative viability: 0.192
NCI-H1793; first compound 2.53 µM
  relative viability: 0.207
NCI-H1793; first compound 8 µM
  relative viability: 0.186
NCI-H650; first compound 0.08 µM
  relative viability: 0.712
NCI-H650; first compound 0.8 µM
  relative viability: 0.986
NCI-H650; first compound 2.53 µM
  relative viability: 0.888
NCI-H650; first compound 8 µM
  relative viability: 0.637
SK-LU-1; first compound 0.08 µM
  relative viability: 0.206
SK-LU-1; first compound 0.8 µM
  relative viability: 0.186
SK-LU-1; first compound 2.53 µM
  relative viability: 0.182
SK-LU-1; first compound 8 µM
  relative viability: 0.204
PC-3 [JPC-3]; first compound 0.08 µM
  relative viability: 0.798
PC-3 [JPC-3]; first compound 0.8 µM
  relative viability: 0.752
PC-3 [JPC-3]; first compound 2.53 µM
  relative viability: 0.724
PC-3 [JPC-3]; first compound 8 µM
  relative viability: 0.599
NCI-H1975; first compound 0.08 µM
  relative viability: 0.296
NCI-H1975; first compound 0.8 µM
  relative viability: 0.282
NCI-H1975; first compound 2.53 µM
  relative viability: 0.293
NCI-H1975; first compound 8 µM
  relative viability: 0.2
NCI-H460; first compound 0.08 µM
  relative viability: 0.0322
NCI-H460; first compound 0.8 µM
  relative viability: 0.0396
NCI-H460; first compound 2.53 µM
  relative viability: 0.0367
NCI-H460; first compound 8 µM
  relative viability: 0.029
NCI-H1915; first compound 0.08 µM
  relative viability: 0.818
NCI-H1915; first compound 0.8 µM
  relative viability: 0.819
NCI-H1915; first compound 2.53 µM
  relative viability: 0.853
NCI-H1915; first compound 8 µM
  relative viability: 0.892
HCC-15; first compound 0.08 µM
  relative viability: 0.243
HCC-15; first compound 0.8 µM
  relative viability: 0.299
HCC-15; first compound 2.53 µM
  relative viability: 0.3
HCC-15; first compound 8 µM
  relative viability: 0.302
NCI-H1437; first compound 0.08 µM
  relative viability: 1.17
NCI-H1437; first compound 0.8 µM
  relative viability: 1.17
NCI-H1437; first compound 2.53 µM
  relative viability: 1.08
NCI-H1437; first compound 8 µM
  relative viability: 0.622
NCI-H2405; first compound 0.08 µM
  relative viability: 0.723
NCI-H2405; first compound 0.8 µM
  relative viability: 0.681
NCI-H2405; first compound 2.53 µM
  relative viability: 0.775
NCI-H2405; first compound 8 µM
  relative viability: 0.738
LXF-289; first compound 0.08 µM
  relative viability: 0.548
LXF-289; first compound 0.8 µM
  relative viability: 0.619
LXF-289; first compound 2.53 µM
  relative viability: 0.781
LXF-289; first compound 8 µM
  relative viability: 0.751
NCI-H441; first compound 0.08 µM
  relative viability: 0.32
NCI-H441; first compound 0.8 µM
  relative viability: 0.294
NCI-H441; first compound 2.53 µM
  relative viability: 0.332
NCI-H441; first compound 8 µM
  relative viability: 0.33
UMC-11; first compound 0.08 µM
  relative viability: 1.1
UMC-11; first compound 0.8 µM
  relative viability: 1.15
UMC-11; first compound 2.53 µM
  relative viability: 1.27
UMC-11; first compound 8 µM
  relative viability: 1.22
H3255; first compound 0.08 µM
  relative viability: 0.848
H3255; first compound 0.8 µM
  relative viability: 0.954
H3255; first compound 2.53 µM
  relative viability: 0.935
H3255; first compound 8 µM
  relative viability: 0.965
NCI-H1755; first compound 0.08 µM
  relative viability: 0.257
NCI-H1755; first compound 0.8 µM
  relative viability: 0.603
NCI-H1755; first compound 2.53 µM
  relative viability: 0.637
NCI-H1755; first compound 8 µM
  relative viability: 0.421
HARA; first compound 0.08 µM
  relative viability: 0.832
HARA; first compound 0.8 µM
  relative viability: 0.919
HARA; first compound 2.53 µM
  relative viability: 0.987
HARA; first compound 8 µM
  relative viability: 0.821
